In ChEMBL document CHEMBL5346965, “Synthesis of Bleomycin-Inspired RNA Ligands Targeting the Biogenesis of Oncogenic miRNAs” (J Med Chem, 2023):
Active and inactive are the calls of the source. The calls are words filed in the database; no cut-off is given here.

Columns and labels:
microRNA 21 [1] = assay: Binding affinity to 5'-fluorescein labeled pre-miR-21 (unknown origin) by fluorescence based assay; type: nucleic-acid assay
microRNA 21 [2] = assay: Inhibition of pre-miR-21 (unknown origin) dicer cleavage activity preincubated for 30 mins followed by RNAase III addition and measured after 30 to 60 mins by FRET method; type: functional
[3] = Selectivity index, ratio of IC50 for inhibition of pre-miR-21 (unknown origin) dicer cleavage activity preincubated for 30 mins followed by MCF-7 cell lysates addition and measured after 30 to 60 mins by FRET method to IC50 for inhibition of pre-miR-21 (unknown origin) dicer cleavage activity preincubated for 30 mins followed by RNAase III addition and measured after 30 to 60 mins by FRET method
microRNA 21 [4] = assay: Inhibition of pre-miR-21 (unknown origin) dicer cleavage activity preincubated for 30 mins followed by MCF7 cell lysates addition and measured after 30 to 60 mins by FRET method; type: functional, subcellular
[5] = Antiproliferative activity against human N15-0385 cells incubated for 72 hrs by WST-1 assay; type: functional, cell-based; conditions: N15-0385, 72 h
[6] = Antiproliferative activity against human N13-1300 cells incubated for 72 hrs by WST-1 assay; type: functional, cell-based; conditions: N13-1300, 72 h
[7] = Antiproliferative activity against human MRC5 cells incubated for 72 hrs by WST-1 assay; type: toxicity, cell-based
U-87 MG = assay: Antiproliferative activity against human U87 cells incubated for 72 hrs by WST-1 assay; type: functional, cell-based, U-87MG ATCC
microRNA 21 [8] = assay: Inhibition of pre-miR-21 (unknown origin) dicer cleavage activity upto 1 mM preincubated for 30 mins followed by RNAase III addition and measured after 30 to 60 mins by FRET method; type: functional; conditions: time 60-90 min

Kd (microRNA 21 [1]) [µM]	IC50 (microRNA 21 [2]) [µM]	Ratio IC50 [3]	IC50 (microRNA 21 [4]) [µM]	SMILES	other results
0.835				NCCCCNCCCNC(=O)c1csc(-c2csc(CCNC(=O)[C@@H](N)CCCCN)n2)n1	
1.91	38.3			NCCCCNCCCNC(=O)c1csc(-c2csc(CCNC(=O)CCCC[C@@H]3SC[C@@H]4NC(=O)N[C@@H]43)n2)n1	inhibition (microRNA 21 [4]; time 60-90 min): inactive
0.33				NCCCCNCCCNC(=O)c1csc(-c2csc(CCNS(=O)(=O)c3cccc4cccnc34)n2)n1	
	31.2	6.2	195	NCCCCNCCCNC(=O)c1csc(-c2csc(CCNCc3ccccc3)n2)n1	
	20.3			NCCCCNCCCNC(=O)c1csc(-c2csc(CCNS(=O)(=O)c3c[nH]cn3)n2)n1	
	20.3	2.5	50.1	NCCCCNCCCNC(=O)c1csc(-c2csc(CCNCc3ccc4[nH]cnc4c3)n2)n1	
1.68				NCCCCNCCCNC(=O)c1csc(-c2csc(CCNC(=O)[C@@H](N)Cc3c[nH]cn3)n2)n1	

The next lines start with the compound.

SMILES	Kd (microRNA 21 [1]) [µM]	IC50 (microRNA 21 [2]) [µM]	Ratio IC50 [3]	IC50 (microRNA 21 [4]) [µM]	other results
Cc1nc(C)c(S(=O)(=O)NCCc2nc(-c3nc(C(=O)NCCCNCCCCN)cs3)cs2)s1		75.9			
CC(C)(C)c1ccc(S(=O)(=O)NCCc2nc(-c3nc(C(=O)NCCCNCCCCN)cs3)cs2)cc1	0.33	16.4	5.6	92.8	
NCCCCNCCCNC(=O)c1csc(-c2csc(CCNS(=O)(=O)c3cc4ccccc4s3)n2)n1	0.33	11.8	4.7	55.5	
NCCCCNCCCNC(=O)c1csc(-c2csc(CCNC(=O)c3ccc4cccnc4n3)n2)n1	0.4				
CN(C)c1ccc(/N=N/c2ccc(S(=O)(=O)NCCc3nc(-c4nc(C(=O)NCCCNCCCCN)cs4)cs3)cc2)cc1	0.076	1.62	4.3	6.93	IC50 [5]: 37.1 µM; IC50 [6]: 22 µM; IC50 at 72 h [7]: > 100 µM; IC50 (U-87 MG): 45.3 µM
Cc1ccc(S(=O)(=O)NCCc2nc(-c3nc(C(=O)NCCCNCCCCN)cs3)cs2)cc1	0.33				
NCCCCNCCCNC(=O)c1csc(-c2csc(CCN)n2)n1	3.63				IC50 [5]: > 100 µM; IC50 [6]: 67.3 µM; inhibition (microRNA 21 [2]; time 60-90 min): inactive; IC50 at 72 h [7]: 16.6 µM; IC50 (U-87 MG): 37.4 µM
Cn1nnc2c(C(N)=O)ncn2c1=O [TEMOZOLOMIDE]					IC50 [5]: > 100 µM; IC50 [6]: 20.8 µM
C#CCCCCC(=O)NCCc1nc(-c2nc(C(=O)NCCCNCCCCN)cs2)cs1	1.87				
NCCCCNCCCNC(=O)c1csc(-c2csc(CCNCc3ccc4scnc4c3)n2)n1		3.74	1.3	4.68	IC50 [5]: 44.7 µM; IC50 [6]: 24.5 µM; IC50 at 72 h [7]: > 100 µM; IC50 (U-87 MG): 16.5 µM
Cc1c(N)nc([C@H](CC(N)=O)NC[C@H](N)C(N)=O)nc1C(=O)N[C@H](C(=O)N[C@H](C)[C@@H](O)[C@H](C)C(=O)N[C@H](C(=O)NCCc1nc(-c2nc(C(=O)NCCCNCCCCN)cs2)cs1)[C@@H](C)O)[C@@H](O[C@@H]1O[C@@H](CO)[C@@H](O)[C@H](O)[C@@H]1O[C@@H]1O[C@H](CO)[C@@H](O)[C@H](OC(N)=O)[C@@H]1O)c1cnc[nH]1	12.6				inhibition (microRNA 21 [8]): inactive
NCCCCNCCCNC(=O)c1csc(-c2csc(CCNS(=O)(=O)c3ccc4ccccc4c3)n2)n1	0.33				
